Laboratory results taken from article PMC8567874, “Metronomic delivery of orally available pemetrexed-incorporated colloidal dispersions for boosting tumor-specific immunity” (Drug Delivery, 2021).

Assay: In situ single-pass rat intestinal perfusion
Assay type: in vivo
Conditions: other: in situ single-pass intestinal perfusion, rat intestine, n = 4, read-out: Effective permeability (Peff)
Experimental: The in situ single-pass intestinal effective permeabilities (Peff) of PMX, PMX/DL(1:1), PMX/DL(1:2), PMX/DL(1:1)-CD, and PMX/DL(1:2)-CD were investigated in rats. The rats were fasted overnight for 12–16 h with free access to water before the experiment and then anesthetized by intramuscular injection of tiletamine·HCl–zolazepam mixture (1:1 [w/w]; 40 mg/kg). With the animal in the supine position, the abdominal cavity was opened using a midline longitudinal incision, and the intestine (duodenum, jejunum, and ileum) was exposed and subsequently intubated at the two ends with a polypropylene perfusion tube connected to a peristaltic pump (Harvard Apparatus, Holliston, MA, USA). After covering the entire excised area with a cotton pad soaked with warm normal saline, the cannulated intestinal segments were flushed with blank perfusion buffer at 37 °C for 30 min, at a constant flow rate of 0.5 mL/min, to remove residual intestinal contents. Then, drug solutions of PMX, PMX/DL(1:1), PMX/DL(1:2), PMX/DL(1:1)-CD, or PMX/DL(1:2)-CD (equivalent to 100 μg/mL PMX) were perfused through the intestinal lumen at 37 °C and a constant flow rate of 0.2 mL/min. After allowing 30 min to achieve a steady-state, outlet perfusate was collected every 15 min for 120 min. In addition, to assess the reliability of the perfusion study, 100 μg/mL fluorescein diluted in perfusion buffer was perfused separately under the same conditions and the collected samples were analyzed at excitation/emission wavelengths of 494/512 nm using a microplate reader (PerkinElmer multimode plate reader; PerkinElmer, Waltham, MA, USA) as a low-permeability marker. During the experiment, all animals were kept on heated pads under a heat lamp to maintain a normal body temperature. At the end of the experiment, the lengths and radii of the cannulated intestinal segments were measured, taking care to avoid stretching them. The collected samples were then filtered using 0.45-μm PVDF filters and stored at −20 °C before analyses. The outlet concentration of PMX in the perfusate was analyzed by HPLC as described above. In addition, the errors caused by rat intestinal water absorption and secretion during perfusion were corrected by the net water flux (ratio of the […] perfusate flows, Qout/Qin) and the corrected drug concentration in perfusate for each formulation was calculated based on the following equation (i.e. gravimetric method): Cout,corr = Cout × (Qout/Qin), where Cout,corr is the corrected outlet PMX concentration (µg/mL), Cout is the PMX outlet concentration (µg/mL), Qin (mL/min) is the flow rate entering the intestine, and Qout (mL/min) is the measured perfusate exit flow (net weight/15 min, assumed density of 1.0 g/mL) for the specified time interval. After correction, the Peff was calculated using the equation: Peff = Qin/A × ln(Cout,corr/Cin), where A is the intestinal area available for absorption (2πrl) based on its length (l) and radius (r).

- Papp at 120 min, 100 μg/mL: 0.1 ± 0.2 ×10⁻⁶ cm/s
Structure (SMILES): O=C1OC2(c3ccc(O)cc3Oc3cc(O)ccc32)c2ccccc21 [fluorescein]
